# From patent publication US20100311714A1, “1H-IMIDAZO[4,5-c]QUINOLINONE COMPOUNDS” (priority 2009, published 2010)
# Molecular target: T1, PI3K delta (Homo sapiens, UniProt O00329)
# T1 construct: for the full-length p110-d subunit are generated and fused by overlapping PCR; His tag (C); made in house; host or cells: baculovirus BV1060; Tn5 (Trichoplusia ni) or TiniPro insect cells
# Assay: PI3K delta kinase assay (Kinase-Glo luminescence)
# Type: biochemical
# Conditions: read-out: EPK_PI3Kdelta/IC50
# Outline: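 Kinase-Glo ATP-depletion luminescence using 10 nM p85(iSH2)-linker-p110δ full-length His-tag construct from insect cells, with 1 μM ATP and 10 μg/mL phosphatidylinositol in 10 mM Tris pH 7.5, 3 mM MgCl2, 50 mM NaCl, 0.05% CHAPS, 1 mM DTT. 60 min room temperature; IC50 from 4-parameter logistic fit over 8 concentrations.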
# T1 sequence (O00329 with tags, fused parts or gaps limits assumed): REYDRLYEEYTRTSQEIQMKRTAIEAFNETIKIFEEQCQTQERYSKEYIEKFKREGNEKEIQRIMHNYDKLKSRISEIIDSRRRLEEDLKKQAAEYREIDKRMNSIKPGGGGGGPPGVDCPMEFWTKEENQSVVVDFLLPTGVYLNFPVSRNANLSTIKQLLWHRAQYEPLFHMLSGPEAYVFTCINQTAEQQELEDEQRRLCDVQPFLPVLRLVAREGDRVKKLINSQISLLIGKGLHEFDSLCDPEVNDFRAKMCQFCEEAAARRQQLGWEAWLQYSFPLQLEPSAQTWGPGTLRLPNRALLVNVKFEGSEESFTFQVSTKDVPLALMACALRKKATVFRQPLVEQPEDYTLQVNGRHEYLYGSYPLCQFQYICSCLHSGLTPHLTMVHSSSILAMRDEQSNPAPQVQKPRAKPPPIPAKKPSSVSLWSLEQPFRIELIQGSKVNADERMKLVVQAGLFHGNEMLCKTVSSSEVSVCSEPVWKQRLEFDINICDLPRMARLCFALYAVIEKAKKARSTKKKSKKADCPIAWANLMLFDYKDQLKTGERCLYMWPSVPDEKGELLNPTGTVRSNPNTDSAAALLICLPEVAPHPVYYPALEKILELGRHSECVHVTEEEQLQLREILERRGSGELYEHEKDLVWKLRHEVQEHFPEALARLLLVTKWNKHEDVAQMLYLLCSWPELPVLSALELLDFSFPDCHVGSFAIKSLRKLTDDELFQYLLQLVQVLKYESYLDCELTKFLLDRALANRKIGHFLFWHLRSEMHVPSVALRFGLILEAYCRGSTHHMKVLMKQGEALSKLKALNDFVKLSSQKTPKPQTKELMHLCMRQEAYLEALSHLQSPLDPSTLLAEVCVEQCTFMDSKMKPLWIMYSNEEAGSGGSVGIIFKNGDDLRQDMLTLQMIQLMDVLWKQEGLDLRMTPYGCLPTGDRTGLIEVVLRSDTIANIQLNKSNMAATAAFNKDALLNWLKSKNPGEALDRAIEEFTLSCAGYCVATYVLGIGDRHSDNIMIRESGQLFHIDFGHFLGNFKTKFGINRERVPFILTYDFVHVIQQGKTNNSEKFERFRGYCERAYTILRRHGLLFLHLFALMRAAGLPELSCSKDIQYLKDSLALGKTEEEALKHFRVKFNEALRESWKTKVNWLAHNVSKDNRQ
row,IC50 [nM],SMILES
1,5,"Cc1nc(N2CC(F)(F)C(F)(F)C2)ccc1-n1c(=O)n(C)c2cnc3ccc(-c4cncc(C(C)(C)O)c4)cc3c21 [Example 35.1, 8-[5-(1-Hydroxy-1-methyl-ethyl)-pyridin-3-yl]-3-methyl-1-[2-methyl-6-(3,3,4,4-tetrafluoro-pyrrolidin-1-yl)-pyridin-3-yl]-1,3-dihydro-imidazo[4,5-c]quinolin-2-one]"
2,56,"COCCOc1ccc(-n2c(=O)n(C)c3cnc4ccc(-c5cnc(COC)c(OC)c5)cc4c32)c(C)n1 [Example 22.3, 1-[6-(2-Methoxy-ethoxy)-2-methyl-pyridin-3-yl]-8-(5-methoxy-6-methoxymethyl-pyridin-3-yl)-3-methyl-1,3-dihydro-imidazo[4,5-c]quinolin-2-one]"
3,24,"CNc1ccc(-c2ccc3ncc4c(c3c2)n(-c2ccc(N3CCCC3)nc2C)c(=O)n4C)cn1 [Example 25.1, 3-Methyl-8-(6-methylamino-pyridin-3-yl)-1-(2-methyl-6-pyrrolidin-1-yl-pyridin-3-yl)-1,3-dihydro-imidazo[4,5-c]quinolin-2-one]"
4,55,"CCNc1cc(-c2ccc3ncc4c(c3c2)n(-c2ccc(N3CC(F)(F)C3)nc2C)c(=O)n4C)cnc1CO [Example 24.3, 1-[6-(3,3-Difluoro-azetidin-1-yl)-2-methyl-pyridin-3-yl]-8-(5-ethylamino-6-hydroxymethyl-pyridin-3-yl)-3-methyl-1,3-dihydro-imidazo[4,5-c]quinolin-2-one]"
5,78,"CNc1ccc(-c2ccc3ncc4c(c3c2)n(-c2ccc(NC(=O)COC)nc2C)c(=O)n4C)cn1 [Example 20.4, 2-Methoxy-N-{6-methyl-5-[3-methyl-8-(6-methylamino-pyridin-3-yl)-2-oxo-2,3-dihydro-imidazo[4,5-c]quinolin-1-yl]-pyridin-2-yl}-acetamide]"
6,101,"COCCOc1ccc(-n2c(=O)n(C)c3cnc4ccc(-c5cncc(N6CCC6)c5)cc4c32)c(C)n1 [Example 22.2, 8-(5-Azetidin-1-yl-pyridin-3-yl)-1-[6-(2-methoxy-ethoxy)-2-methyl-pyridin-3-yl]-3-methyl-1,3-dihydro-imidazo[4,5-c]quinolin-2-one]"
7,9,"Cc1nc(N2CCC(O)C2)ccc1-n1c(=O)n(C)c2cnc3ccc(-c4cncc(OC(C)C)c4)cc3c21 (centres unmarked) [Example 27.1, 1-[6-(3-Hydroxy-pyrrolidin-1-yl)-2-methyl-pyridin-3-yl]-8-(5-isopropoxy-pyridin-3-yl)-3-methyl-1,3-dihydro-imidazo[4,5-c]quinolin-2-one]"
8,142,"COCC(=O)Nc1ccc(-n2c(=O)n(C)c3cnc4ccc(-c5cncc(OC(C)C)c5)cc4c32)c(C)n1 [Example 20.5, N-{5-[8-(5-Isopropoxy-pyridin-3-yl)-3-methyl-2-oxo-2,3-dihydro-imidazo[4,5-c]quinolin-1-yl]-6-methyl-pyridin-2-yl}-2-methoxy-acetamide]"
9,403,"CNc1ncc(-c2ccc3ncc4c(c3c2)n(-c2ccc(NC(=O)COC)nc2C)c(=O)n4C)cn1 [Example 20.3, 2-Methoxy-N-{6-methyl-5-[3-methyl-8-(2-methylamino-pyrimidin-5-yl)-2-oxo-2,3-dihydro-imidazo[4,5-c]quinolin-1-yl]-pyridin-2-yl}-acetamide]"
10,18,"Cc1nc(N2CC(F)(F)C2)ccc1-n1c(=O)n(C)c2cnc3ccc(-c4cncc(C(C)(C)O)c4)cc3c21 [Example 24.2, 1-[6-(3,3-Difluoro-azetidin-1-yl)-2-methyl-pyridin-3-yl]-8-[5-(1-hydroxy-1-methyl-ethyl)-pyridin-3-yl]-3-methyl-1,3-dihydro-imidazo[4,5-c]quinolin-2-one]"
11,14,"Cc1nc(C(C)(C)O)ccc1-n1c(=O)n(C)c2cnc3ccc(-c4cncc(OC(C)C)c4)cc3c21 [Example 31.9, 1-[6-(1-Hydroxy-1-methyl-ethyl)-2-methyl-pyridin-3-yl]-8-(5-isopropoxy-pyridin-3-yl)-3-methyl-1,3-dihydro-imidazo[4,5-c]quinolin-2-one]"

# More lines, now with the values behind:
row,SMILES,IC50 [nM]
1,"CCOc1ccc(-c2ccc3ncc4c(c3c2)n(-c2ccc(N(C)CCOC)nc2C)c(=O)n4C)cn1 [Example 15.3, 8-(6-Ethoxy-pyridin-3-yl)-1-{6-[(2-methoxy-ethyl)-methyl-amino]-2-methyl-pyridin-3-yl}-3-methyl-1,3-dihydro-imidazo[4,5-c]quinolin-2-one]",117
2,"COCCOc1cc(-c2ccc3ncc4c(c3c2)n(-c2ccc(OC)nc2OC)c(=O)n4C)cnc1C [Example 8.9, 1-(2,6-Dimethoxy-pyridin-3-yl)-8-[5-(2-methoxy-ethoxy)-6-methyl-pyridin-3-yl]-3-methyl-1,3-dihydro-imidazo[4,5-c]quinolin-2-one]",14
3,"CNc1ccc(-c2ccc3ncc4c(c3c2)n(-c2ccc(N(C)CCOC)nc2C)c(=O)n4C)cn1 [Example 15.4, 1-{6-[(2-Methoxy-ethyl)-methyl-amino]-2-methyl-pyridin-3-yl}-3-methyl-8-(6-methylamino-pyridin-3-yl)-1,3-dihydro-imidazo[4,5-c]quinolin-2-one]",36
4,"COCCN(C)c1ccc(-n2c(=O)n(C)c3cnc4ccc(-c5cnc(CO)c(OC)c5)cc4c32)c(C)n1 [Example 15.9, 8-(6-Hydroxymethyl-5-methoxy-pyridin-3-yl)-1-{6-[(2-methoxy-ethyl)-methyl-amino]-2-methyl-pyridin-3-yl}-3-methyl-1,3-dihydro-imidazo[4,5-c]quinolin-2-one]",40
5,"CCOc1ccc(-c2ccc3ncc4c(c3c2)n(-c2cncc(C)c2)c(=O)n4C)cn1 [Example 17.1, 8-(6-Ethoxy-pyridin-3-yl)-3-methyl-1-(5-methyl-pyridin-3-yl)-1,3-dihydro-imidazo[4,5-c]quinolin-2-one]",275
6,"Cc1ccc(-n2c(=O)n(C)c3cnc4ccc(-c5cnc(N)c(C(F)(F)F)c5)cc4c32)c(C)n1 [Example 14.5, 8-(6-Amino-5-trifluoromethyl-pyridin-3-yl)-1-(2,6-dimethyl-pyridin-3-yl)-3-methyl-1,3-dihydro-imidazo[4,5-c]quinolin-2-one]",7
7,"Cc1ccc(-n2c(=O)n(C)c3cnc4ccc(-c5cnc6c(ccn6C)c5)cc4c32)c(C)n1 [Example 14.7, 1-(2,6-Dimethyl-pyridin-3-yl)-3-methyl-8-(1-methyl-1H-pyrrolo[2,3-b]pyridin-5-yl)-1,3-dihydro-imidazo[4,5-c]quinolin-2-one]",28
8,"CCN(C)c1ccc(-n2c(=O)n(C)c3cnc4ccc(-c5ccc(NC)nc5)cc4c32)c(C)n1 [Example 12.1, 1-[6-(Ethyl-methyl-amino)-2-methyl-pyridin-3-yl]-3-methyl-8-(6-methylamino-pyridin-3-yl)-1,3-dihydro-imidazo[4,5-c]quinolin-2-one]",15

# Same assay, conditions: read-out: PI3Kdelta/IC50
row,IC50 [nM],SMILES
1,8,"COc1ncccc1-n1c(=O)n(C)c2cnc3ccc(-c4cnc(N)c(C(F)(F)F)c4)cc3c21 [Example 1.3, 8-(6-Amino-5-trifluoromethyl-pyridin-3-yl)-1-(2-methoxy-pyridin-3-yl)-3-methyl-1,3-dihydro-imidazo[4,5-c]quinolin-2-one]"
2,12,"COc1ccc(-n2c(=O)n(C)c3cnc4ccc(-c5cnc(N)c(C(F)(F)F)c5)cc4c32)c(OC)n1 [Example 8.1, 8-(6-Amino-5-trifluoromethyl-pyridin-3-yl)-1-(2,6-dimethoxy-pyridin-3-yl)-3-methyl-1,3-dihydro-imidazo[4,5-c]quinolin-2-one]"
3,166,"CCOc1ccc(-c2ccc3ncc4c(c3c2)n(-c2cccnc2OC)c(=O)n4C)cn1 [Example 1.5, 8-(6-Ethoxy-pyridin-3-yl)-1-(2-methoxy-pyridin-3-yl)-3-methyl-1,3-dihydro-imidazo[4,5-c]quinolin-2-one]"
4,72,"COc1ccc(-c2ccc3ncc4c(c3c2)n(-c2cccnc2)c(=O)n4C)cc1OC [Example 5.2, 8-(3,4-Dimethoxy-phenyl)-3-methyl-1-pyridin-3-yl-1,3-dihydro-imidazo[4,5-c]quinolin-2-one]"
5,249,"COc1ccc(-c2ccc3ncc4c(c3c2)n(-c2ncccc2C)c(=O)n4C)cn1 [Example 3.13, 8-(6-Methoxy-pyridin-3-yl)-3-methyl-1-(3-methyl-pyridin-2-yl)-1,3-dihydro-imidazo[4,5-c]quinolin-2-one]"
6,57,"Cc1ncccc1-n1c(=O)n(C)c2cnc3ccc(-c4cnc5c(ccn5C)c4)cc3c21 [Example 2.14, 3-Methyl-1-(2-methyl-pyridin-3-yl)-8-(1-methyl-1H-pyrrolo[2,3-b]pyridin-5-yl)-1,3-dihydro-imidazo[4,5-c]quinolin-2-one]"
7,81,"CNc1ccc(-c2ccc3ncc4c(c3c2)n(-c2cccnc2OC)c(=O)n4C)cn1 [Example 1.4, 1-(2-Methoxy-pyridin-3-yl)-3-methyl-8-(6-methylamino-pyridin-3-yl)-1,3-dihydro-imidazo[4,5-c]quinolin-2-one]"
8,26,"COc1ccc(-c2ccc3ncc4c(c3c2)n(-c2cccnc2OC)c(=O)n4C)cn1 [Example 1.1, 1-(2-Methoxy-pyridin-3-yl)-8-(6-methoxy-pyridin-3-yl)-3-methyl-1,3-dihydro-imidazo[4,5-c]quinolin-2-one]"
9,264,"Cc1cccnc1-n1c(=O)n(C)c2cnc3ccc(-c4cnc5ccccc5c4)cc3c21 [Example 3.8, 3-Methyl-1-(3-methyl-pyridin-2-yl)-8-quinolin-3-yl-1,3-dihydro-imidazo[4,5-c]quinolin-2-one]"
10,39,"COc1ccc(-c2ccc3ncc4c(c3c2)n(-c2cccnc2)c(=O)n4C)cn1 [Example 5.4, 8-(6-Methoxy-pyridin-3-yl)-3-methyl-1-pyridin-3-yl-1,3-dihydro-imidazo[4,5-c]quinolin-2-one]"
